This is an account of results in patent publication US7550613B2, “Compounds” (Pronova Biopharma Norge AS, priority 2005, dated 2009).

Test [1] is described as follows: Effect of DHA derivatives in adipose prone mice during 4 months of dietary interventions (Example 5a). It counts as in vivo, male C57BL/6 mice. Particulars: for Body wt. gain / Body weight / NEFA / Insulin / TAGs: 4 months; for Body weight: * = significant vs cHF (P<0.05); for AUCglucose: intraperitoneal glucose tolerance test; for NEFA: non-esterified fatty acids; for Insulin: plasma; for TAGs: serum triglycerides. Here is the method:
All experiments were performed on male C57BL/6 mice, either a substrain C57BL/N (supplier: Charles River, Germany, n=160, experiments A-C, see below), or a substrain C57BL/6J (supplier: the Jackson laboratory, Bar Harbor, Me., USA, n=32, experiment D). Total numbers of animals used were higher (n=170 and 36, respectively), because of culling. In the latter case, animals were bred for several generations (<20) at the Institute of Physiology. At the beginning of the treatment, animals were 14-week-old and their body weight range was 23.6-27.1 g. One week before the study start, animals were sorted according to their body weight and assigned to subgroups (n=8) of similar mean body weight. This method allowed for culling of about 5-10% of animals showing the lowest and highest body weight, respectively. The animals eliminated from the study at this stage were sacrificed by cervical dislocation. Complete health check of mice was performed by the supplier Charles River and at the start of study serological tests were performed by ANLAB (Prague, Czech Republic). In addition, regular health checks were performed in the animal house in 3-mo-intervals using sentinel mice and serological examinations (ANLAB). In all the tests, the animals were free of specific pathogens.
• (i) Chow diet (ssniff R/M-H from SSNIFF Spezialdieten Gmbh, Soest, Germany; see also http://ssniff.de) with protein, fat and carbohydrate forming 33, 9, and 58 energy %, respectively • (ii) High-fat diet prepared in the laboratory (cHF diet) with protein, fat and carbohydrate forming 15, 59, and 26 energy %, respectively, and well characterized fatty acid composition (with most of the lipids coming from corn oil; see Ruzickova 2004) • (iii) cHF diets in which 0.15, 0.5, and 1.5% of fat (specifically the corn oil constituent) was replaced by various PRB-compounds, namely PRB1, PRB2, PRB5, PRB7, and PRB8, or by DHA. All these compounds were in the form of ethyl esters, provided by Pronova Biocare a.s. in sealed containers. Chemical composition of the PRB-compounds was unknown to the laboratory performing the experiments (Institute of Physiology, Academy of Sciences Prague, Czech Republic).
The study was based on 4 individual experiments. In each of the experiments, different PRB-compounds (or DHA, respectively) admixed to cHF diet in three different concentrations (0.15, 0.5, and 1.5% of the fat content) were tested. In each experiment, a subgroup of plain cHF diet-fed mice was included and served as a control. Mice were caged in groups of 4 and fed standard chow diet until 3 mo of age, when animals (n=8-13) were randomly assigned to the different test diets. After 2 mo on this new diet (at 5 mo of age), animals were fasted overnight and in the morning, intraperitoneal Glucose Tolerance Test (GTT) was performed. Animals were sacrificed after 4 months on the experimental diets, at 7 mo of age, and the end-point analysis were performed.

Another test addresses T1, PPARγ (Homo sapiens, UniProt P37231).
T1 construct: For full length PPAR transfection studies, each well received 5 μg reporter construct; expressed in transfected cells; host or cells: COS-1 cells
T1 sequence (P37231 1-505): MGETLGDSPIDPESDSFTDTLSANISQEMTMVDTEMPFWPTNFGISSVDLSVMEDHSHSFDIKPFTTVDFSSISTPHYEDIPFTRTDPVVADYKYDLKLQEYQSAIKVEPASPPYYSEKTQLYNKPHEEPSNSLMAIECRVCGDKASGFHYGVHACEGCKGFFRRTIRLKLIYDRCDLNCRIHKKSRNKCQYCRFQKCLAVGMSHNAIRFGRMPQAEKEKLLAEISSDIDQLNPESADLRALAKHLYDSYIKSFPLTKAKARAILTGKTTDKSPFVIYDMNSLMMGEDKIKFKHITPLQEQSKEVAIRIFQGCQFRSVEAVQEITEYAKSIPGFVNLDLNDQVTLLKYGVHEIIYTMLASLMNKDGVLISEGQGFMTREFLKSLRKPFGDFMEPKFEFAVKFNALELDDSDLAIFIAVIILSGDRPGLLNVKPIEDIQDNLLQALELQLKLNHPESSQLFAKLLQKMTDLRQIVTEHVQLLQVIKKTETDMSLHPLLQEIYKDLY
Briefly: Affinity testing in transfected cells (release of luciferase). Particulars: FIG. 8; 10 μM of PRBs. It counts as cell-based. As to the method:
Release of luciferase is correlated to transcription of genes. Binding of a ligand to a nuclear receptor such as PPARγ induces transcription of the respective gene thereby releasing luciferase. This technique therefore provides a measure of ligand affinity to the receptor as well as activation of the responsible gene.
Transient transfection of COS-1 cells was performed in 6-well plates as described by Graham and van der Eb (Graham). For full length PPAR transfection studies, each well received 5 μg reporter construct, 2.5 μg pSV-β-galactosidase as an internal control, 0.4 μg pSG5-PPARγ2. The cells were harvested after 72 h, and the luciferase activity was measured according to the protocol (Promega). The luciferase activity was normalised against β-galactosidase activity. The adipocytes were transfected at D11 of differentiation using 16 μl LipofectaminPlus reagent, 4 μl Lipofectamine (Life Technologies Inc.), 0.2 μg pSG5-PPARγ, and 100 ng pTK Renilla luciferase as control of transfection afficiency. […] The luciferase activities were measured as recommended by the manufacturer (Dual Luciferase assay, Promega). […]
Fatty acids (BRL or DHA) and PRBs (stock solutions) were solubilized to 0.1 M final concentration in DMSO. […] Luciferase activity was measured using a luminometer (TD-20/20 luminometer; Turner Designs, Sunnycvale, Calif.) and normalized against protein content.

The nature of test [2]: Histological analysis of tissue samples, liver fat (Example 5c). It counts as in vivo, C57BL/6 mice. The settings on record: eosin-hematoxylin; control animals fed high fat diet had fat liver. From the text:
Tissue samples from animals in the experiments with DHA derivatives was histologically analysed. After paraffination, tissue samples from liver, adipose tissue, skeletal muscle, pancreas, and kidney were stained with eosin-hematoxylin.

Turning to `CC/C=C\C/C=C\C/C=C\C/C=C\C/C=C\C/C=C\CC(SCC)C(=O)OCC` (stereo not drawn) [PRB-7, α-tioethyl docosahexaenoic acid ethyl ester], in test [1] (0.15% concentration), the Fasted glucose worked out at 141 ± 9 mg/dL, the “Body wt. gain” value worked out at 23.2 ± 0.7 grams, the Body weight was 47.4 ± 0.8* grams and the AUCglucose came to 1425 ± 97 mM × 180 min. Also, in test [1] (0.15% concentration), the NEFA stood at 0.85 ± 0.06 mmol/L, the Insulin is on record as 3.76 ± 0.72 ng/mL and the TAGs was 1.41 ± 0.11 mmol/L. In test [1] (0.5% concentration), this compound showed a Fasted glucose of 152 ± 6 mg/dL, a Body wt. gain of 24.8 ± 0.8 grams, a Body weight of 48.8 ± 0.9 grams and an AUCglucose of 1674 ± 203 mM × 180 min. In test [1] (0.5% concentration), this compound showed an NEFA of 0.87 ± 0.04 mmol/L, an Insulin of 4.10 ± 0.57 ng/mL and a TAGs of 1.42 ± 0.08 mmol/L. In addition, in test [1] (1.5% concentration), the Fasted glucose is 120 ± 9 mg/dL, the Body wt. gain turned out to be 21.7 ± 0.9 grams, the AUCglucose is 1122 ± 73 mM × 180 min and the NEFA was 0.82 ± 0.06 mmol/L. In test [1] (1.5% concentration), this compound returned an Insulin of 4.42 ± 0.87 ng/mL and a TAGs of 1.15 ± 0.08 mmol/L. Further, the Body weight in test [1] (1.5% concentration in cHF diet) is listed as 45.9 ± 1.1* grams. Further, the “release of luciferase from transfected cells” value at PPARγ is “significantly higher release of luciferase”. Also, the “fat liver (liver steatosis), histology” value in test [2] is given as “low degree of fat liver”.
